The source of these data is article PMC12145446, “Development of an AI model for DILI-level prediction using liver organoid brightfield images” (Communications Biology, 2025).

The subject of data set [1] is human liver organoids (HLOs). The experiment in a line: Cellular viability (ATP, CellTiter-Glo) in the DILI toxicity test on human liver organoids. It is filed as cell-based. The note with it: 10*Cmax; for ATP inhibition, significance vs 0*Cmax: liver organoids, Supplementary Fig. 2, peer review file. As to the method:
(§1) All experiments were performed using HLOs derived from a single donor tissue. For each assay, three technical replicates were analyzed, corresponding to three independently cultured wells seeded with organoids. For passage, the following embedding method was used: HLOs were enzymatically or mechanically fragmented (with pre-cold phosphate-buffered saline (PBS)) and reseeded in new Matrigel. Specifically, the pre-cold Matrigel/cell mixture is seeded in 24-well plates at 30 μL/well to enable the formation of dome-shaped structures. Incubation in the cell incubator (37 °C, 5% CO2) for 15 min is required for Matrigel polymerization. After solidification, 500 μL of specific medium is added and later renewed at specific intervals.
(§2) The peak serum concentration (Cmax) can intuitively reflect the actual presence level of a drug in the body’s circulatory system. […] On this basis, we selected 10*Cmax as the reference concentration, taking into account the coefficient of variation in toxicology (individual variability: tenfold). […] Each drug was tested in triplicate. Plates were dosed with the drug for 72 h in each cycle (referred to as Day 0 through Day 3). […] At the end of day 3, the supernatant from each well was collected to determine ALB secretion, and the spheroids from each well were used for the cell viability assay.
(§3) CellTiter-Glo (CTG, G9681, PROMEGA) reagent and culture medium were added to each well in a 1:1 ratio. The contents were mixed for 2 min to induce cell lysis. The plate was incubated at room temperature for 10 min to stabilize the luminescent signal. Recording of luminescence was carried out with BioTek Microplate Reader Synergy H1 (Vermont, USA).

The conditions of data set [2]: peak serum concentration used as dosing reference; source not given; cited from earlier work.
For data set [3] the following is noted: cited from earlier work; for Label section / Severity class: DILIrank; for Label section: FDA drug label section; for DILIrank: FDA DILIrank category based on clinical data.
Data set [4] deals with human liver organoids (HLOs). The experiment in a line: ALB secretion (Human Albumin ELISA) in the DILI toxicity test on human liver organoids. In kind it is cell-based. The settings on record: 10*Cmax; for ALB inhibition, significance vs 0*Cmax: liver organoids, Supplementary Fig. 1. As to the method:
as §1, §2
(§4) The culture supernatants were collected and stored at −80 °C until use. The supernatant was assayed with a Human Albumin ELISA Kit (PROTEINTECH, KE00076). Assays were performed according to the manufacturer’s instructions.
A general note: An ELISA detects its analyte on a solid surface through an enzyme-linked reagent.

For data set [5], the system named is HepG2 spheroids. Kind of data set: Cellular viability (ATP, CellTiter-Glo) in the DILI toxicity test on HepG2 spheroids. In kind it is cell-based. The note with it: 10*Cmax, end of Day 3 (72 h), individual replicates n = 3, unit from Fig. S4 legend. As to the method: (§5) The HepG2 cells were donated by Avatarget Co., Ltd (Suzhou, China). The HepG2 cells were cultured in DMEM (Gibco, 10567014) containing 10% fetal bovine serum (GIBCO, A3161001C), and 1×penicillin/streptomycin (Gibco, 15140148). HepG2 cells (70–80% cell confluency) were washed twice in sterile PBS and then dissociated with 1 mL 0.25% EDTA-Trypsin. Using 3×volume of the complete medium neutralized with reagent above, count cells and ensure 10,000 cells/well. The desired volume of cell suspension was inoculated into the 200 μL/well of ultra-low attachment microplate (Corning, 7007). The plate was centrifuged at 1500 rpm for 10 min and then incubated in an incubator at 37 °C in 5% CO2 for 4 days. The medium is changed every other day at a 1:1 ratio.
(§6) The peak serum concentration (Cmax) can intuitively reflect the actual presence level of a drug in the body’s circulatory system. Therefore, we used 1*Cmax as a reference for the drug dosage to better approximate the in vivo conditions. On this basis, we selected 10*Cmax as the reference concentration, taking into account the coefficient of variation in toxicology (individual variability: tenfold). […] Each drug was tested in triplicate. Plates were dosed with the drug for 72 h in each cycle (referred to as Day 0 through Day 3). […] At the end of day 3, the supernatant from each well was collected to determine ALB secretion, and the spheroids from each well were used for the cell viability assay. The Cmax information of the drugs is shown in Supplementary Table 3.
as §3
A general note: Cellular ATP, detected with luciferase, serves as a proxy for viable cell number.

In data set [6] the test system is HepG2 spheroids. Kind of data set: ALB secretion (Human Albumin ELISA) in the DILI toxicity test on HepG2 spheroids. It is filed as cell-based. The note with it: 10*Cmax, end of Day 3 (72 h), individual replicates n = 3, unit from Fig. S3 legend. As to the method: as §5, §6, §4
In data set [7] the test system is human liver organoids (HLOs). Kind of data set: Brightfield morphology of dosed human liver organoids. It is filed as cell-based. The note with it: 10*Cmax.
From the text: To explore the suitability of liver models with varying levels of complexity for DILI toxicity testing platforms, we established a single-type cell 3D model (HepG2 spheroid) and a multi-type cell 3D model (liver organoid). Specifically, HepG2 spheroids and HLOs were each exposed to 30 compounds with or without hepatotoxicity. The levels of ALB from the supernatant and cellular activity (ATP) from the spheres were further assessed at the end of Day 3 to validate the reliability of the system (Figs. 2b, d, f and 3b, d, f). […] The brightfield images across different time series and different z-axis orientations were collected daily to generate image data for morphological analysis (Supplementary Figs. 5 and 6).
as §2

Several values for one entry are separate records, joined by “and”; a condition that tells them apart may be missing. Equal values may be shown once. Entries after “also recorded” stand apart in the source; their conditions may differ.

On to `NNC(=O)c1ccncc1` [Isoniazid], for which the “ATP inhibition, significance vs 0*Cmax” value in data set [1] was “did not show a significant difference”. For the same molecule, in data set [2], the Cmax was 10500 ng/mL. For the same molecule, in data set [3], the Label section result is “Box warning”, the Severity class was 8 and the DILIrank result is “vMost-DILI-Concern”. In addition, the “ALB inhibition, significance vs 0*Cmax” value in data set [4] is recorded as “did not show a significant difference”.
On to `C[C@]12CCC(=O)C=C1CC[C@@H]1[C@@H]2[C@@H](O)C[C@@]2(C)[C@H]1CC[C@]2(O)C(=O)CO` [Hydrocortisone], for which, in the data set with HepG2 spheroids [5], the ATP inhibition was -17% and -20% and -30%. Further, the maximum concentration (Cmax) in data set [2] was 305 ng/mL. Further, in data set [3], the Label section result was “No match”, the Severity class is listed as 0 and the DILIrank result is “vNo-DILI-Concern”. For the same molecule, the ALB inhibition in the data set with HepG2 spheroids [6] was -33% and -30% and -26%.
As to `O=P1(N(CCCl)CCCl)NCCCO1` (stereo not shown) [Cyclophosphamide], in the data set on HepG2 spheroids [5], the ATP inhibition was 36% and 26% and 38%. In data set [2], the peak concentration (Cmax) is 69000 ng/mL. For the same molecule, in data set [3], the Label section result is on record as “Adverse reactions”, the Severity class was 5 and the DILIrank result is recorded as “vLess-DILI-Concern”. The ALB inhibition in the data set with HepG2 spheroids [6] is 90% and 54% and 78%.
With `CC[C@]1(O)C[C@@H]2CN(CCc3c([nH]c4ccccc34)[C@@](C(=O)OC)(c3cc4c(cc3OC)N(C)[C@H]3[C@@](O)(C(=O)OC)[C@H](OC(C)=O)[C@]5(CC)C=CCN6CC[C@]43[C@@H]65)C2)C1` [Vinblastine], the “ATP inhibition, significance vs 0*Cmax” value in data set [1] is reported as “significant”. The highest concentration (Cmax) in data set [2] is 28 ng/mL. The “ALB inhibition, significance vs 0*Cmax” value in data set [4] is recorded as “significant”.
For the molecule `COc1cc2ncnc(Nc3ccc(F)c(Cl)c3)c2cc1OCCCN1CCOCC1` [Gefitinib], the Cmax in data set [2] was 200 ng/mL. In addition, the “Brightfield morphology changes of HLOs” value in data set [7] (Day 0 to Day 3) is “underwent cell death, failed to maintain their original spherical structure, and disintegrated by the end of Day 3; also recorded: started to undergo significant cell death and structural disintegration”.
Turning to `CC(=O)O[C@H]1C(=O)[C@@]2(C)[C@H]([C@H](OC(=O)c3ccccc3)[C@]3(O)C[C@H](OC(=O)[C@H](O)[C@@H](NC(=O)c4ccccc4)c4ccccc4)C(C)=C1C3(C)C)[C@]1(OC(C)=O)CO[C@@H]1C[C@@H]2O` [Paclitaxel], the Cmax in data set [2] is 600 ng/mL. For the same molecule, in data set [3], the Label section result is “Adverse reactions”, the Severity class is 4 and the DILIrank entry is on record as “vLess-DILI-Concern”.
As to `CS(=O)(=O)Nc1ccc([N+](=O)[O-])cc1Oc1ccccc1` [Nimesulide], in data set [2], the Cmax is 6500 ng/mL. Moreover, in data set [3], the Label section entry is “Withdrawn”, the Severity class is 8 and the DILIrank entry was “vMost-DILI-Concern”.
On to `CCc1ccc(CCOc2ccc(CC3SC(=O)NC3=O)cc2)nc1` (stereo not shown) [Pioglitazone], for which, in data set [2], the highest concentration (Cmax) is 1050 ng/mL. For the same molecule, in data set [3], the Label section result is “Warnings and precautions”; the Severity class is recorded as 3; the DILIrank result is “vLess-DILI-Concern”.
In the case of `C[C@H]1COc2c(N3CCN(C)CC3)c(F)cc3c(=O)c(C(=O)O)cn1c23` [Levofloxacin], the Cmax in data set [2] is 5700 ng/mL. Also, the DILIrank entry in data set [3] was “vMost-DILI-Concern”.
In the case of `C[C@H]1O[C@@H](O[C@H]2[C@@H](O)C[C@H](O[C@H]3[C@@H](O)C[C@H](O[C@H]4CC[C@@]5(C)[C@H](CC[C@@H]6[C@@H]5C[C@@H](O)[C@]5(C)[C@@H](C7=CC(=O)OC7)CC[C@]65O)C4)O[C@@H]3C)O[C@@H]2C)C[C@H](O)[C@@H]1O` [Digoxin], in data set [1], the “ATP inhibition, significance vs 0*Cmax” value is “significant”. Also, in data set [2], the Cmax was 2.21 ng/mL. The “ALB inhibition, significance vs 0*Cmax” value in data set [4] is listed as “significant”.
`CN(C)CCC(c1ccc(Cl)cc1)c1ccccn1` (stereo not shown) [Chlorpheniramine]: in data set [1] (human liver organoids, end of Day 3 (72 h), individual replicates n = 3, listed as Chlorphenamine), the ATP inhibition was 13% and 9% and -14%. Moreover, the Cmax in data set [2] is 140 ng/mL. In addition, in data set [3], the Label section result is given as “No match”, the Severity class was 0 and the DILIrank result is given as “vNo-DILI-Concern”. For the same molecule, the “DILI level label by DILIrank” value in data set [3] (label as worded in text and figure legends) is reported as “No-DILI”. Also, the “Brightfield morphology changes of HLOs” value in data set [7] (Day 0 to Day 3) was “still increased in diameter and developed into a typical translucent hollow sphere with clear boundaries”. Also, the “Brightfield morphology changes of HLOs” value in data set [7] (Day 0 to Day 3, listed as Chlorphenamine) is “still grew significantly”. Also, in data set [4] (human liver organoids, end of Day 3 (72 h), individual replicates n = 3, unit from Fig. S1 legend, listed as Chlorphenamine), the ALB inhibition is 1% and 9%.
Take `N[C@@H]1[C@H]2CN(c3nc4c(cc3F)c(=O)c(C(=O)O)cn4-c3ccc(F)cc3F)C[C@@H]12` [Trovafloxacin]: the ATP inhibition in the data set on HepG2 spheroids [5] is 52% and 58%. Also, the Cmax in data set [2] is 2090 ng/mL. Further, in data set [3], the Label section result is given as “Withdrawn”. Besides, in the data set with HepG2 spheroids [6], the ALB inhibition is 28% and 76% and 63%.
`CCc1nn(CCCN2CCN(c3cccc(Cl)c3)CC2)c(=O)n1CCOc1ccccc1` [Nefazodone]: the Cmax in data set [2] is 434.9 ng/mL. Besides, in data set [3], the Label section result is listed as “Box warning”, the Severity class is recorded as 8 and the DILIrank entry was “vMost-DILI-Concern”.
For the molecule `CN(Cc1cnc2nc(N)nc(N)c2n1)c1ccc(C(=O)N[C@@H](CCC(=O)O)C(=O)O)cc1` [Methotrexate], the Cmax in data set [2] is 351 ng/mL. In data set [3], the Label section result is given as “Box warning”, the Severity class is 3 and the DILIrank result is recorded as “vMost-DILI-Concern”.

Broadly, the Cmax is the maximum level reached in the sampled fluid or tissue.
